Laboratory results reported in patent publication US8211883B2, “Topical delivery of phthalocyanines” (priority 2004, dated 2012).

Legend:
[1] = tested on: Chinese hamster V79-379 lung fibroblasts; assay: Growth delay of V79 cultures after phthalocyanine and red light; format: cell-based; details: V79 cells, 0.5 μM, 18 hours, 12 kJ/m^2 red light; three day observation
Description: At the time of light exposure, there were approximately 1.5×10^5 cells per 25 cm^2 flask. Following irradiation, the HBSS was replaced by 10 mL of fresh complete growth medium, and the cultures were returned to the 37° C. incubator. At various times before and after irradiation, duplicate cultures were trypsinized and counted. Controls included untreated cells and cells treated with light alone or drug alone. In addition, in each experiment, the drug to be tested was compared to a standard treatment, i.e. 1 μM AlPcCl for 18 hours followed by 12 kJ/m^2 light.
The inhibition of V79 culture growth was measured during a three day period following red light irradiation (12 kJ/m^2) of phthalocyanine-pretreated cells. With each of the active compounds, as well as with AlPcCl, there was an initial decrease in cell density, as dead cells became detached from the monolayer. Thereafter, the cell number per flask increased, as living cells grew and divided. The time for the cell density to recover to the level at the time of light exposure was considered the growth delay. […] The ratio of the growth delay for the test photosensitizer and the growth delay for AlPcCl measured in the same experiment is recorded in Table 1. There was less inhibition of culture growth when cells were exposed to compounds III, V, or VI as expected from the poor cellular uptake of these drugs.

[2] = Retention of Pc IV in tumor tissue (pharmacokinetic data); format: in vivo; details: after administration
[3] = tested on: skin lesions (early mycosis fungoides, squamous cell carcinoma); assay: Topical PcIV-PDT of skin lesions in patients; format: in vivo, human
Description: PcIV solution concentrations were either 0.01 mg/mL or 0.05 mg/mL. One hour after administration of the PcIV solution, the skin lesions were exposed to a 675 nm laser, dose ranging from 50-100 J/cm^2. […] Two patients felt some heat over the treatment site during the first few minutes of laser exposure. […] Because Pc 4 is a photosensitizer, individual patient sun sensitivity was monitored by serial phototesting using solar simulated radiation. […] (see FIGS. 10a and 10b).

[4] = tested on: chemically-induced benign skin papillomas; assay: PDT of chemically induced skin tumors; format: in vivo, SENCAR mice; details: 0.5 and 1.0 mg/kg i.p. in DPPC liposomes
Description: 6-week-old female SENCAR mice received a single topical application of 5 μg DMBA in 0.2 mL acetone on the dorsal skin as tumor initiator. One week later, the animals were started on twice-weekly topical applications of 1 μg TPA in 0.2 mL acetone as tumor promoter. All of the animals developed tumors at 12 weeks. Mice that developed 4-5 tumors per animal averaging 5-8 mm in diameter and 2-5 mm in thickness were used. Pc IV, entrapped in DPPC liposomes was administered intraperitoneally at doses of either 0.5 or 1.0 mg/kg and 24 hrs later the tumor area was illuminated with light from an argon pumped dye laser tuned at 675 nm for a total light dose of 135 j/cm^2 (75 mW/cm^2). All possible controls were included; either the animals were untreated, treated only with laser light or treated only with Pc IV alone.

[5] = tested on: human skin keratome biopsies; assay: Penetration of topically applied PcIV and salts into human skin, confocal fluorescence microscopy; format: in vitro ADME; details: for laser transmission at which maximum fluorescence was detectable: fluorescence inversely proportional to laser transmission, listed as PcIV
Description: Human skin absorption of PcIV was analyzed by fluorescence confocal microscopy. PcIV fluorescence, upon activation with a HeNe laser at 633 nm, was visualized using a 650 long pass filter. Briefly, 0.4 mm thick human keratomes were removed from the gluteal region of healthy volunteers and divided into 1.5 cm×1.5 cm squares of skin. Upon application of PcIV to the epidermis in a vehicle of ethanol and propylene glycol, visualization of penetration of PcIV was achieved by fluorescence. Pc 4 was then prepared as PcIV-pyruvate and PcIV-HCl and applied in the same vehicle as Pc 4 to the epidermis. Three concentrations, namely, 0.1 mg/mL, 0.05 mg/mL, and 0.01 mg/mL were tested per PcIV formulation. Skin was incubated at 37° C. for 1, 2, and 4 hours, along with vehicle controls. […] Maximum PcIV fluorescence was detectable using laser transmission of 3% for the 0.1 mg/mL and 30% for the 0.01 mg/mL. Both PcIV.pyruvate and PcIV.HCl however could be visualized with a laser transmission of 2-3% for the 0.1 mg/mL and 7-9% for the 0.01 mg/mL concentrations.
The ability of PcIV and the newly prepared PcIV salts (HCl and pyruvate) to penetrate into the epidermis of keratome derived biopsies was examined. The time course of penetrance as well as the effect of dose of the PcIV compounds were evaluated. PcIV and the PcIV.HCl and PcIV.pyruvate salts were resuspended in ethanol (100%, 1 part PcIV, 499 parts ethanol) and then diluted to final concentrations in a 30% Propylene Glycol 70% Ethanol mixture.
Keratome biopsies of normal skin were obtained from normal volunteers after written consent according to UHHS IRB protocol # 05-95-03. To date, seven experiments have been performed. The range of age for volunteers was 20-40 yrs. Individuals represented Fitzpatrick skin types between I-III. Skin biopsies were held in PBS following the keratome procedure until processed for PcIV Application (less than 1 hr). The keratome skin samples (1.5 cm^2) were overlayed onto sterile gauze in 80 mm tissue culture petri dishes epidermal side down. PcIV compounds were then applied to the corners of the sterile gauze and allowed to “wick” through the gauze and contact the epidermis of the skin for the indicated times. Following the incubation, the tissue was removed from the gauze and washed three times in phosphate buffered saline and held, in PBS, until analysis by confocal microscopy. Confocal images were acquired using a 20×N.A. 0.5 water immersion objective on a Zeiss 510 confocal microscope. PcIV fluorescence was elicited using a 633 nm wavelength for excitation, and collected with a 633 nm dichroic mirror and 650 nm long-pass filter.

[6] = eleven patients, topical PcIV-PDT

CN(C)CCC[Si](C)(C)O[Si]1(O)n2c3c4ccccc4c2N=C2N=C(N=c4c5ccccc5c(n41)=NC1=NC(=N3)c3ccccc31)c1ccccc12 (centres unmarked) [Compound IV, HOSiPcOSi(CH3)2(CH2)3N(CH3)2]
Growth Delay (12 kj/m^2), Efficiency Relative to 1 μM (AlPcCl) [1]: >3 | retention in tumor tissue [2]: retained in tumor tissue even after 7 days | clinical response of lesions (erythema and infiltration) [3, 6]: Two patients showed a minimal decrease in erythema and infiltration of their lesions | cures [3, 6]: No cures have been achieved to date | TUNEL positivity in lesional skin biopsies ([3]; one patient with some clinical response, 24 hours after treatment): increase in TUNEL positivity along the superficial portion of the lesion | changes in sunburn threshold or minimum erythema dose (MED) ([3]; serial phototesting with solar simulated radiation): No significant changes were observed | adverse effects ([3]; topical 0.01 or 0.05 mg/mL, 675 nm laser 50-100 J/cm^2 one hour later, up to two weeks): No significant adverse effects were observed | tumor volume after PDT ([4]; 675 nm 135 j/cm^2 24 hrs later): eventually decreased to 0 volume | tumor return ([4]; length of the study 34 days): did not return for the length of the study | laser transmission at which maximum fluorescence was detectable ([5]; 0.01 mg/mL in ethanol and propylene glycol): 30% | laser transmission at which maximum fluorescence was detectable ([5]; 0.1 mg/mL in ethanol and propylene glycol): 3% | penetration into skin ([5]; 0.01-0.1 mg/mL, 1, 2 and 4 hours at 37° C.): successfully penetrated the skin to the basal layer in a dose dependent fashion | lowest concentration tested at which penetration is demonstrated ([5]; propylene glycol vehicle): 0.01 mg/mL | time to effective penetration through intact human stratum corneum ([5]; propylene glycol/ethanol vehicle): within one hour
